# Reference: patent publication US20060058274A1, “Use of an aldosterone receptor antagonist to improve cognitive function” (Pharmacia Corporation, priority 2000, published 2006)
# Columns and labels:
# [1] = tested on: Dahl salt-sensitive (DS) rat; settings: low, non-antihypertensive doses, cited from earlier work; for memory function (passive avoidance): aged DS rats on low salt diet
# [2] = target: T1, central mineralocorticoid receptors (Homo sapiens, UniProt P08235); settings: cited from earlier work
# T1 sequence (P08235 1-984): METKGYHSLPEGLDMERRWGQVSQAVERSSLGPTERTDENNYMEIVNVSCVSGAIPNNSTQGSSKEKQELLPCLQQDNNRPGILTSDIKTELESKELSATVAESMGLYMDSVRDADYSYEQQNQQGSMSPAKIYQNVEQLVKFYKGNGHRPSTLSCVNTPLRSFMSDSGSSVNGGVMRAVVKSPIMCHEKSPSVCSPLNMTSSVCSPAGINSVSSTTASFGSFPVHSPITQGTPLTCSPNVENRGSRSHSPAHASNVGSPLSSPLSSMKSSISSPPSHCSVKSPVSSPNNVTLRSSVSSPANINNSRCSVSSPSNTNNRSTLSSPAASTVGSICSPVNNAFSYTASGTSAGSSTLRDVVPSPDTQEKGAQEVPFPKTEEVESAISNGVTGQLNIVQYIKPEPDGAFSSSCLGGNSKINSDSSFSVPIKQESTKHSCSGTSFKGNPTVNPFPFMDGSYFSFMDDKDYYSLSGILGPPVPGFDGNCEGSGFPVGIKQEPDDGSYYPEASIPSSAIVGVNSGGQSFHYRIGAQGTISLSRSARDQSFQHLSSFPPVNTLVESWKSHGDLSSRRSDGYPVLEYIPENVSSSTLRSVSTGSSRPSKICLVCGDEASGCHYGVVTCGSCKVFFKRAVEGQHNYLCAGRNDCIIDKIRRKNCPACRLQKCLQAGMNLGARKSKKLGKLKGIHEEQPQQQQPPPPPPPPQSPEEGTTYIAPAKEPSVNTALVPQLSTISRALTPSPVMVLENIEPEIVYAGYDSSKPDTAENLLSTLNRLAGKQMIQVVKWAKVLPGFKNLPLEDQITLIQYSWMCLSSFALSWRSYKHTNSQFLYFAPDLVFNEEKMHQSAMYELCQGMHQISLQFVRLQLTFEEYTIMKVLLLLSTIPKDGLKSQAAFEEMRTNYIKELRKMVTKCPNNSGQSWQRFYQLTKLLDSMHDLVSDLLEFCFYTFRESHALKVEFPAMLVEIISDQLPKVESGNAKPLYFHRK
# glucocorticoid receptors = target: T2, glucocorticoid receptors (Homo sapiens, UniProt P04150); settings: cited from earlier work
# T2 sequence (P04150 1-777): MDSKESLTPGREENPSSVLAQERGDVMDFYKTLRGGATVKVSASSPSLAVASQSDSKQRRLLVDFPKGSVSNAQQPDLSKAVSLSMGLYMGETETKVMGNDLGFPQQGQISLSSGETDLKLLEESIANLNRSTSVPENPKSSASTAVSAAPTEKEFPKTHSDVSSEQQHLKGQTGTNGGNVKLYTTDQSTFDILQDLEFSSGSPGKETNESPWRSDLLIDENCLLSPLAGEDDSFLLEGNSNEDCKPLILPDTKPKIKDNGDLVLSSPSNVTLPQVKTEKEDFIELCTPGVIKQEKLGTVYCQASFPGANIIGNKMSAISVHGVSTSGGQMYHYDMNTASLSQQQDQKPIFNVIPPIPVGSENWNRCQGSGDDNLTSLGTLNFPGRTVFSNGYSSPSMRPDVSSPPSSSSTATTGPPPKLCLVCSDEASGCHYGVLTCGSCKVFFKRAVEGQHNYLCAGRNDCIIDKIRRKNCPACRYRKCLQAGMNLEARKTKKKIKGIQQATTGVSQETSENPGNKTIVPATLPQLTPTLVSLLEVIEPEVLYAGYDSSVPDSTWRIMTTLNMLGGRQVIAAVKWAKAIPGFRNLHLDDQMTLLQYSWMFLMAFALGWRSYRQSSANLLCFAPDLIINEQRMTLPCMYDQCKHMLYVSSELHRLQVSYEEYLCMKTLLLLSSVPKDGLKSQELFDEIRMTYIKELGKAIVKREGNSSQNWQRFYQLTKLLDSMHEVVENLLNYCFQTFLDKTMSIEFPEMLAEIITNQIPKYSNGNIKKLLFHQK
# male Wistar rats = settings: cited from earlier work; for corticosterone-induced increase in behavioral reactivity: pretreatment, intracerebroventricular injection
# [3] = tested on: patients with mild-to-moderate hypertension; assay: Phase II dose-ranging study of eplerenone in mild-to-moderate hypertension; type: in vivo, human; settings: for adjusted mean change in ABPM DBP from baseline to final visit / adjusted mean change in ABPM SBP from baseline to final visit: ambulatory blood pressure monitoring; for adjusted mean change in Cuff DBP from baseline to final visit / adjusted mean change in Cuff SBP from baseline to final visit: eight-week study
# Text: The adjusted mean changes (in mmHg) in diastolic blood pressure (DBP) and systolic blood pressure (SBP) from baseline to final visit are shown in Table 1A.
# [4] = tested on: patients with HF or hypertension; assay: Phase II eplerenone HF and hypertension trials; type: in vivo, human; settings: 25 to 50 mg QD
# mice = settings: cited from earlier work
# [5] = Dissolution rate of unformulated solid state forms of eplerenone; type: physicochemical; settings: temperatures below the enantiotropic transition temperature
# [6] = Physical stability of solid state forms of eplerenone; type: physicochemical; settings: temperatures below the enantiotropic transition temperature
smiles,measurement,setting,value
Cc1ccnc2c1nc(C1CC1)n2Cc1ccc(-c2ccccc2C(=O)O)cc1 [Compound E4177],memory function (passive avoidance),[1],slightly improved
same,capillary densities in the CA1 regions,[1],not influenced
same,hippocampal CA1 cells,[1],restored slightly
C[C@]12C[C@H](O)[C@H]3[C@@H](CCC4=CC(=O)CC[C@@]43C)[C@@H]1CC[C@@H]2C(=O)CO [Corticosterone],affinity for central mineralocorticoid receptors,[2],high affinity
same,affinity for glucocorticoid receptors relative to mineralocorticoid receptors,glucocorticoid receptors,tenfold lower affinity
same,adrenalectomy-increased behavioral reactivity towards the object,male Wistar rats; 50 micrograms/kg s.c.,blocked
"COC(=O)[C@@H]1CC2=CC(=O)CC[C@]2(C)[C@@]23O[C@@H]2C[C@@]2(C)[C@@H](CC[C@@]24CCC(=O)O4)[C@H]13 [Eplerenone, Pregn-4-ene-7,21-dicarboxylic acid, 9,11-epoxy-17-hydroxy-3-oxo-,γ-lactone, methyl ester, (7α,11α,17β)-]",adjusted mean change in ABPM DBP from baseline to final visit,[3]; 25 mg BID,−4.1 mmHg
same,adjusted mean change in ABPM SBP from baseline to final visit,[3]; 25 mg BID,−7.5 mmHg
same,adjusted mean change in Cuff DBP from baseline to final visit,[3]; 25 mg BID,−4.4 mmHg
same,adjusted mean change in Cuff SBP from baseline to final visit,[3]; 25 mg BID,−8.1 mmHg
same,adjusted mean change in ABPM DBP from baseline to final visit,[3]; 50 mg BID,−6.6 mmHg
same,adjusted mean change in ABPM SBP from baseline to final visit,[3]; 50 mg BID,−11.6 mmHg
same,adjusted mean change in Cuff DBP from baseline to final visit,[3]; 50 mg BID,−7.8 mmHg
same,adjusted mean change in Cuff SBP from baseline to final visit,[3]; 50 mg BID,−11.7 mmHg
same,adjusted mean change in Cuff DBP from baseline to final visit,[3]; 50 mg QD,−4.5 mmHg
same,adjusted mean change in Cuff DBP from baseline to final visit,[3]; 100 mg QD,−4.4 mmHg
same,adjusted mean change in Cuff SBP from baseline to final visit,[3]; 100 mg QD,−7.9 mmHg
same,"frequency of transient hyperkalemia (i.e., $5.4 mmol/L)",[3]; 200 mg BID and 400 mg QD treatment groups,increased frequency
same,adjusted mean change in ABPM DBP from baseline to final visit,[3]; 200 mg BID,−9.0 mmHg
same,adjusted mean change in ABPM SBP from baseline to final visit,[3]; 200 mg BID,−16.1 mmHg
same,adjusted mean change in Cuff DBP from baseline to final visit,[3]; 200 mg BID,−8.9 mmHg
same,adjusted mean change in Cuff SBP from baseline to final visit,[3]; 200 mg BID,−14.8 mmHg
same,adjusted mean change in Cuff DBP from baseline to final visit,[3]; 400 mg QD,−8.7 mmHg
same,adjusted mean change in Cuff SBP from baseline to final visit,[3]; 400 mg QD,−15.0 mmHg
same,plasma renin activity,"[3]; increasing doses, FIG. 1-1",increased levels
same,serum aldosterone,"[3]; increasing doses, FIG. 1-1",increased levels
same,systolic blood pressure,"[3]; increasing doses, FIG. 1-2",decreased
same,diastolic blood pressure,"[3]; increasing doses, FIG. 1-3",decreased
same,tolerability,"[3]; total daily doses 50, 100 or 400 mg",well tolerated
same,diuretic or hemodynamic effect,[4],neither diuretic nor hemodynamic
same,plasma BNP levels,[4],lowered
same,plasma renin and aldosterone levels,[4],increased
same,effect on the ACE-inhibited mice,"mice; mouse, in vivo",had no effect
same,retention-sparing effects of piracetam,"mice; mouse, in vivo",prevented
"COC(=O)[C@@H]1CC2=CC(=O)CC[C@]2(C)[C@@]23O[C@@H]2C[C@@]2(C)[C@@H](CC[C@@]24CCC(=O)O4)[C@H]13 [Form H, eplerenone]","dissolution rate, higher than unformulated Form L",[5],approximately 30%
"COC(=O)[C@@H]1CC2=CC(=O)CC[C@]2(C)[C@@]23O[C@@H]2C[C@@]2(C)[C@@H](CC[C@@]24CCC(=O)O4)[C@H]13 [Form L, eplerenone]",physical stability relative to Form H,[6],greater physical stability
CCC[C@@H]1CC2=CC(=O)CC[C@]2(C)[C@H]2CC[C@@]3(C)[C@@H](CC[C@@]3(O)CCC(=O)[O-])[C@H]12.[K+] [RU28318],corticosterone-induced increase in behavioral reactivity,male Wistar rats,prevented
CC#C[C@]1(O)CC[C@H]2[C@@H]3CCC4=CC(=O)CCC4=C3[C@@H](c3ccc(N(C)C)cc3)C[C@@]21C [RU38486],corticosterone-induced increase in behavioral reactivity,male Wistar rats,not effective
CCOC(=O)[C@H](CCc1ccccc1)N[C@H]1CCCN2CCC[C@@H](C(=O)O)N2C1=O [cilazapril],memory function (passive avoidance),[1],dose-dependently improved
same,capillary densities in the CA1 regions,[1],significant increases
same,hippocampal CA1 cells,[1],significant increases
NC(=O)CN1CCCC1=O [piracetam],retention performance,"mice; pretreatment, amnesia induced by electro-shock",significantly improved
